Literature values in US20090239812A1, “USE OF C7 SUGARS IN PREVENTION AND TREATMENT OF MYCOSES” (Laboratoires Expanscience, priority 2006, published 2009).

System: Ehrlich's ascites tumor cells
Conditions: perseitol associated with a potassium ion; Shibuya et al. 1999

## OCC(O)C(O)C(O)C(O)C(O)CO (stereo not shown) [perseitol, Perseitol]
  incorporation of 3H-leucine: inhibits
